Results published in patent US11420975B2, “Substituted imidazo[1,5-a]pyrazines as Bruton's tyrosine kinase inhibitors” (TRANSTHERA SCIENCES (NANJING), INC., priority 2018, dated 2022).
pIC50: −log10 of the molar value.

Experiments:
[1] = molecular target: BTK(C481S) (Homo sapiens (Human), UniProt Q06187, C481S); assay: In vitro inhibitory activity against BTK(C481S) enzyme (33P-ATP filter binding); assay type: biochemical; details: class symbols; read-out: IC50 BTK(C48IS)
Description: (§1) The substrate solution was prepared by adding the substrate poly(Glu, Tyr) sodium salt (Sigma Aldrich, St. Louis, Mo.) to the substrate reaction buffer (20 mM Hepes (pH 7.5), 10 mM MgCl2, 1 mM EGTA, 0.02% Brij35, 0.02 mg/mL BSA, 0.1 mM Na3VO4, 2 mM DTT and 1% DMSO) (final substrate concentration in the reaction solution was 0.2 μM). Test compound was formulated into stock solutions at 10 mM concentration with 100% DMSO, and 3-fold serial dilution for 10 doses was performed in a 384-well cyclic olefin copolymer LDV microplate. […] Test compound in 100% DMSO was then added to the kinase reaction mixture by acoustic liquid transfer technology (Echo 550; nanoliter range) (Labcyte Inc, Sunnyvale, Calif.) and incubated for 20 min at room temperature. 33P-ATP (specific activity 10 μCi/μL) was added to the reaction mixture to initiate the reaction, followed by incubation at room temperature for 2 h. A small portion of the reaction mixture was dropped onto P-81 ion exchange filter paper (Whatman). After washing the unbound phosphate from the filter paper with 0.75% phosphate buffer (three times) and drying, the remaining radioactivity on the filter paper was measured. The kinase activity was expressed as the percentage of the remaining kinase activity in the test sample to the kinase activity in the vehicle (dimethyl sulfoxide) blank control. IC50 values were calculated by curve fitting the data obtained using Prism (GraphPad Software).

[2] = molecular target: BTK(wt) (Homo sapiens (Human), UniProt Q06187); assay: In vitro inhibitory activity against BTK(wt) enzyme (33P-ATP filter binding); assay type: biochemical; details: class symbols
Chain of BTK(wt) (Q06187 whole entry): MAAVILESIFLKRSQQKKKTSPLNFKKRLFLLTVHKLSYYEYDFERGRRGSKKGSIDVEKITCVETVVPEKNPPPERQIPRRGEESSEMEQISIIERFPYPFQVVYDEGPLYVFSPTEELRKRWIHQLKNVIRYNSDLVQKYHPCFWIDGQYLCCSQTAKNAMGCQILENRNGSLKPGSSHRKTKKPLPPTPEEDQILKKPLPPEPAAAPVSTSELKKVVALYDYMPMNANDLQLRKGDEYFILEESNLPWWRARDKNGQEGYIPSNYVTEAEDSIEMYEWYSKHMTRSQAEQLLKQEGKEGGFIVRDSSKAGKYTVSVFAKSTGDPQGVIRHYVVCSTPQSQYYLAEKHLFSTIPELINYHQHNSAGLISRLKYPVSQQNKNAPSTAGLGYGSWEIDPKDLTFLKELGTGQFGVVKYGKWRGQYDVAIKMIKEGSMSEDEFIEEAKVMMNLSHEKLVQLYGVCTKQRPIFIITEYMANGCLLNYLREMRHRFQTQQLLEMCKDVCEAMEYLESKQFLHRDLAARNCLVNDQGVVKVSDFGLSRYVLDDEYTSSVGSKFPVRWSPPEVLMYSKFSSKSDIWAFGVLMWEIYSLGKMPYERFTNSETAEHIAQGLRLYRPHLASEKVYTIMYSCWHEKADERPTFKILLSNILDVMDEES
Description: as §1

Chain of BTK(C481S) (Q06187 whole entry C481S): as the sequence (Q06187 whole entry) above, with C481S counted along it

pIC50 [1]	pIC50 [2]	SMILES
8.00 to 9.00	8.00 to 9.00	Nc1nccn2c(C34CCC(NC(=O)c5ccco5)(CC3)C4)nc(-c3ccc(C(=O)Nc4cc(C(F)(F)F)ccn4)cc3)c12 [Compound A-10-21, N-(4-(8-amino-1-(4-((4-(trifluoromethyl)pyridin-2-yl)carbamoyl)phenyl)imidazo[1,5-a]pyrazin-3-yl)bicyclo[2.2.1]heptan-1-yl)furan-2-carboxamide]
8.00 to 9.00	7.30 to 8.00	Nc1nccn2c(C34CCC(NC(=O)c5ccccn5)(CC3)C4)nc(-c3ccc(C(=O)Nc4cc(C(F)(F)F)ccn4)cc3)c12 [Compound A-10-18, N-(4-(8-amino-1-(4-((4-(trifluoromethyl)pyridin-2-yl)carbamoyl)phenyl)imidazo[1,5-a]pyrazin-3-yl)bicyclo[2.2.1]heptan-1-yl)picolinamide]
8.00 to 9.00	7.30 to 8.00	COc1ccc(F)cc1C(=O)NCc1ccc(-c2nc(C34CCC(NC(=O)C(C)(C)O)(CC3)C4)n3ccnc(N)c23)cc1 [Compound A-16-1, N-(4-(8-amino-3-(4-(2-hydroxy-2-methylpropanamido)bicyclo[2.2.1]heptan-1-yl)imidazo[1,5-a]pyrazin-1-yl)benzyl)-5-fluoro-2-methoxybenzamide]
≥ 10.00	8.00 to 9.00	CC1(C(=O)NC23CCC(c4nc(-c5ccc(C(=O)Nc6cc(C(F)(F)F)ccn6)cc5)c5c(N)nccn45)(CC2)C3)COC1 [Compound A-10-5, N-(4-(8-amino-1-(4-((4-(trifluoromethyl)pyridin-2-yl)carbamoyl)phenyl)imidazo[1,5-a]pyrazin-3-yl)bicyclo[2.2.1]heptan-1-yl)-3-methyloxetane-3-carboxamide]
8.00 to 9.00	7.30 to 8.00	COc1ccccc1C(=O)NC12CCC(c3nc(-c4ccc(C(=O)Nc5cc(C(F)(F)F)ccn5)cc4)c4c(N)nccn34)(CC1)C2 [Compound A-10-20, N-(4-(8-amino-1-(4-((4-(trifluoromethyl)pyridin-2-yl)carbamoyl)phenyl)imidazo[1,5-a]pyrazin-3-yl)bicyclo[2.2.1]heptan-1-yl)-2-methoxybenzamide]
8.00 to 9.00	8.00 to 9.00	Nc1nccn2c(C34CCC(NC(=O)c5nccs5)(CC3)C4)nc(-c3ccc(C(=O)Nc4cc(C(F)(F)F)ccn4)cc3)c12 [Compound A-10-22, N-(4-(8-amino-1-(4-((4-(trifluoromethyl)pyridin-2-yl)carbamoyl)phenyl)imidazo[1,5-a]pyrazin-3-yl)bicyclo[2.2.1]heptan-1-yl)thiazole-2-carboxamide]
8.00 to 9.00	8.00 to 9.00	CC1(C(=O)NC23CCC(c4nc(-c5ccc(Oc6ccccc6)cc5)c5c(N)nccn45)(CC2)C3)COC1 [Compound A-13-3, N-(4-(8-amino-1-(4-phenoxyphenyl)imidazo[1,5-a]pyrazin-3-yl)bicyclo[2.2.1]heptan-1-yl)-3-methyloxetane-3-carboxamide]
9.00 to 10.00	8.00 to 9.00	COCC(=O)NC12CCC(c3nc(-c4ccc(C(=O)Nc5cc(C(F)(F)F)ccn5)cc4)c4c(N)nccn34)(CC1)C2 [Compound A-10-7, 4-(8-amino-3-(4-(2-methoxyacetamido)bicyclo[2.2.1]heptan-1-yl)imidazo[1,5-a]pyrazin-1-yl)-N-(4-(trifluoromethyl)pyridin-2-yl)benzamide]
9.00 to 10.00	8.00 to 9.00	CC#CC(=O)NC12CCC(c3nc(-c4ccc(CNC(=O)c5cc(F)ccc5OC)cc4)c4c(N)nccn34)(CC1)C2 [Compound A-7-12, N-(4-(8-amino-3-(4-(but-2-ynamido)bicyclo[2.2.1]heptan-1-yl)imidazo[1,5-a]pyrazin-1-yl)benzyl)-5-fluoro-2-methoxybenzamide]
8.00 to 9.00	7.30 to 8.00	Nc1nccn2c(C34CCC(NC(=O)c5cccnc5)(CC3)C4)nc(-c3ccc(C(=O)Nc4cc(C(F)(F)F)ccn4)cc3)c12 [Compound A-10-19, N-(4-(8-amino-1-(4-((4-(trifluoromethyl)pyridin-2-yl)carbamoyl)phenyl)imidazo[1,5-a]pyrazin-3-yl)bicyclo[2.2.1]heptan-1-yl)nicotinamide]
8.00 to 9.00	8.00 to 9.00	COCCC(=O)NC12CCC(c3nc(-c4ccc(CNC(=O)c5cc(F)ccc5OC)cc4)c4c(N)nccn34)(CC1)C2 [Compound A-16-2, N-(4-(8-amino-3-(4-(3-methoxypropanamido)bicyclo[2.2.1]heptan-1-yl)imidazo[1,5-a]pyrazin-1-yl)benzyl)-5-fluoro-2-methoxybenzamide]
9.00 to 10.00	8.00 to 9.00	Nc1nccn2c(C34CCC(NC(=O)C5CCCO5)(CC3)C4)nc(-c3ccc(C(=O)Nc4cc(C(F)(F)F)ccn4)cc3)c12 (stereo not drawn) [Compound A-10-11, N-(4-(8-amino-1-(4-((4-(trifluoromethyl)pyridin-2-yl)carbamoyl)phenyl)imidazo[1,5-a]pyrazin-3-yl)bicyclo[2.2.1]heptan-1-yl)tetrahydrofuran-2-carboxamide]
8.00 to 9.00	8.00 to 9.00	COc1ccc(F)cc1C(=O)NCc1ccc(-c2nc(C34CCC(NC(=O)C5(C)COC5)(CC3)C4)n3ccnc(N)c23)cc1 [Compound A-16-3, N-(4-(8-amino-1-(4-((5-fluoro-2-methoxybenzamido)methyl)phenyl)imidazo[1,5-a]pyrazin-3-yl)bicyclo[2.2.1]heptan-1-yl)-3-methyloxetane-3-carboxamide]
8.00 to 9.00	8.00 to 9.00	CC#CC(=O)NC12CCC(n3c(=O)n(-c4ccc(C(=O)Nc5cc(C(F)(F)F)ccn5)cc4)c4c(N)ncnc43)(CC1)C2 [Compound C-7-1, 4-(6-amino-9-(4-(but-2-ynamido)bicyclo[2.2.1]heptan-1-yl)-8-oxo-8,9-dihydro-7H-purin-7-yl)-N-(4-(trifluoromethyl)pyridin-2-yl)benzamide]
9.00 to 10.00	9.00 to 10.00	CC#CC(=O)NC12CCC(c3nc(-c4ccc(C(=O)Nc5cc(C(F)(F)F)ccn5)cc4)c4c(N)nccn34)(CC1)C2 [Compound A-7-3, 4-(8-amino-3-(4-(but-2-ynamido)bicyclo[2.2.1]heptan-1-yl)imidazo[1,5-a]pyrazin-1-yl)-N-(4-(trifluoromethyl)pyridin-2-yl)benzamide]
8.00 to 9.00	8.00 to 9.00	COc1ccc(F)cc1C(=O)NCc1ccc(-c2nc(C34CCC(NC(=O)CN5CCOCC5)(CC3)C4)n3ccnc(N)c23)cc1 [Compound A-16-4, N-(4-(8-amino-3-(4-(2-morpholinoacetamido)bicyclo[2.2.1]heptan-1-yl)imidazo[1,5-a]pyrazin-1-yl)benzyl)-5-fluoro-2-methoxybenzamide]
9.00 to 10.00	8.00 to 9.00	CC(C#N)C(=O)NC12CCC(c3nc(-c4ccc(C(=O)Nc5cc(C(F)(F)F)ccn5)cc4)c4c(N)nccn34)(CC1)C2 (stereo not drawn) [Compound A-10-14, 4-(8-amino-3-(4-(2-cyanopropanamido)bicyclo[2.2.1]heptan-1-yl)imidazo[1,5-a]pyrazin-1-yl)-N-(4-(trifluoromethyl)pyridin-2-yl)benzamide]
9.00 to 10.00	8.00 to 9.00	CC#CC(=O)NC12CCC(c3nc(-c4ccc(Oc5ccccc5)cc4)c4c(N)nccn34)(CC1)C2 [Compound A-7-14, N-(4-(8-amino-1-(4-phenoxyphenyl)imidazo[1,5-a]pyrazin-3-yl)bicyclo[2.2.1]heptan-1-yl)but-2-ynamide]
